What was measured:
steelheads [1] = assay: Feeding of steelheads: content and composition of the lipid in the internal organ; type: in vivo, Oncorhynchus, steelheads (rainbow trouts)
Method: (§1) Effects of ethyl docosahexaenoate and conjugated ethyl docosahexaenoate upon accumulation of the fat and the lipid composition were examined by feeding both ethyl esters to rainbow trouts.
(§2) Measuring conditions were as follows.
(§3) 1) Sample fish: Oncorhynchus, steelheads 3 months old after birth
(§4) 2) Farming condition: water temperature 10° C., each group 60 fishes
(§5) 3) Feed (fundamental feed: compounded feed for oriental trouts)
(§6) 1st group: fundamental feed +olive oil (5 wt %)
(§7) 2nd group: fundamental feed +olive oil (3 wt %) +ethyl docosahexaenoate (0.5 wt %)
(§8) 3rd group: fundamental feed +olive oil (4.5 wt %) +ethyl conjugated docosahexaenoate (0.5 wt %)
(§9) 4th group: fundamental feed +olive oil (3 wt %) +ethyl conjugated docosahexaenoate (2 wt %)
(§10) Conjugated ethyl docosahexaenoate used is obtained by isomerization of double bonds of ethyl docosahexaenoate in the presence of an alkali catalyst, and its composition consisted of 81.4% of conjugated ethyl docosahexaenoate and 18.6% of ethyl docosahexaenoate. More specifically, conjugated ethyl docosahexaenoate consisted of 57.4% of conjugated diene ester, 12.0% of conjugated triene ester, 12.0% of conjugated tetraene ester and 18.6% of ethyl docosahexaenoate. […]
(§11) Steelheads used, which were 3 months old after birth (average weight 0.82 g) and divided into four groups each consisting 60 steelheads, were farmed at a water temperature of about 10° C. for 21 weeks.
(§12) Effects of the feeds upon the internal organs and the lipid contents of the steelheads 21 weeks old after starting the farming were examined. The concrete lipid compositions in the internal organs are shown in Table 1, and the concrete lipid compositions in muscles shown in Table 2.

steelheads [2] = assay: Feeding of steelheads: content and composition of the lipid in muscles; type: in vivo, Oncorhynchus, steelheads (rainbow trouts)
Method: as §1, §2, §3, §4, §5, §6, §7, §8, §9, §10, §11, §12

[3] = 0.5 wt % in feed, farmed 21 weeks, water 10° C.
[4] = 2nd to 4th groups versus feed with neither ester

For CC/C=C\C/C=C\C/C=C\C/C=C\C/C=C\C/C=C\CCC(=O)OCC [ethyl docosahexaenoate], the “Lipid composition (%) FFA, internal organ” value (steelheads [1]; [3]) was 3.0%, the “Lipid composition (%) PL, internal organ” value (steelheads [1]; [3]) was 5.8% and the “Lipid composition (%) SE, internal organ” value (steelheads [1]; [3]) was 1.6%. The “Lipid composition (%) TG, internal organ” value (steelheads [1]; [3]) was 89.6%, the “Lipid content (%) in the internal organ” value (steelheads [1]; [3]) was 23.2% and the “lipid contents in the internal organs compared with 1st group (FIG. 1)” value (steelheads [1]; [4]) was “lower lipid contents”. The “Lipid composition (%) FFA, muscles” value (steelheads [2]; [3]) was 1.7%, the “Lipid composition (%) PL, muscles” value (steelheads [2]; [3]) was 21.0% and the “Lipid composition (%) SE, muscles” value (steelheads [2]; [3]) was 0.7%. The “Lipid composition (%) TG, muscles” value (steelheads [2]; [3]) was 76.6%, the “Lipid content (%) in muscles” value (steelheads [2]; [3]) was 4.3% and the “lipid contents in the muscles compared with 1st group (FIG. 1)” value (steelheads [2]; [4]) was “lower lipid contents”.
